Experimental data reported in patent US5118675A, “Quinoxaline phosphono-amino acids” (American Home Products Corporation, priority 1991, dated 1992).

How the values were obtained:
NMDA-lethality = NMDA-lethality model in mice (antagonism of NMDA in vivo, survival); parameters: species or system mouse (male Swiss-albino, CD-1 strain); settings: Mus musculus, ip, 0.5 h; test compound i.p. 30 min before NMDA 195 mg/kg i.p.; 30 min observation
Description: Male Swiss-albino mice (CD-1 strain, Charles River) 18-22 grams in weight, after 18 hours of food deprivation, were habituated to an observation chamber for 30 minutes. The mice were pretreated with the representative test compound followed thirty minutes later with NMDA, 195 mg/kg, i.p., which is a dose normally causing 90% mortality resulting from motor seizures including uncontrollable hind leg scratching or limbs and/or torso muscle jerking with loss of righting reflex followed by death within the 30 minute observation period after NMDA administration. From the latter, the ED50 for survival is determined.

NMDA receptor = assay: Displacement of tritiated CPP ([3H] CPP binding) in rat frontal cortex homogenates
Description: CPP binding at 10 μM concentrations. The IC50 calculated for these compounds is as follows: […]

| Compound | ED50 (NMDA-lethality) [mg/kg] | IC50 (NMDA receptor) [nM] |
| --- | --- | --- |
| NC(Cc1nc2cc(Cl)c(Cl)cc2nc1CP(=O)(O)O)C(=O)O (stereo not drawn) [Example 7, α-Amino-6,7-dichloro-3-(phosphonomethyl)-2-quinoxalinepropanoic Acid] | 1.58 | 4 |
| D(-)-2-amino-5-phosphono-heptanoic acid [D(-)-2-amino-5-phosphonoheptanoic acid, reference compound] | – | 639 |
| NC(Cc1nc2ccccc2nc1CP(=O)(O)O)C(=O)O (racemic) [Example 1, α-Amino-3-(phosphonomethyl)-2-quinoxalinepropanoic Acid] | 3.72 | 110 |
| Cc1cc2nc(CC(N)C(=O)O)c(CP(=O)(O)O)nc2cc1C (stereo not drawn) [Example 4, α-Amino-6,7-dimethyl-3-(phosphonomethyl)-2-quinoxalinepropanoic Acid] | – | 22 |
| N[C@@H](CCC(=O)O)C(=O)O [L-glutamic acid, reference compound] | – | 64 |
| NC(Cc1nc2ccccc2nc1CP(=O)(O)O)C(=O)O (single isomer, unassigned) [Laevoisomer of Example 3, (-)-α-amino-3-(phosphonomethyl)-2-quinoxalinepropanoic acid] | 1.52 | 29 |
| NC(Cc1nc2cc(F)c(F)cc2nc1CP(=O)(O)O)C(=O)O (stereo not drawn) [Example 10, α-Amino-6,7-difluoro-3-(phosphonomethyl)-2-quinoxalinepropanoic Acid] | – | 166 |
| NC(Cc1nc2cc3ccccc3cc2nc1CP(=O)(O)O)C(=O)O (stereo not drawn) [Example 5, α-Amino-3-(phosphonomethyl)-2-benzo[g]quinoxalinepropanoic Acid] | 5.3 | 6 |
| NC(Cc1nc2cc(Cl)ccc2nc1CP(=O)(O)O)C(=O)O (stereo not drawn) [Example 8, α-Amino-7-chloro-3-(phosphonomethyl)-2-quinoxalinepropanoic Acid] | 1.13 | 24 |
| COc1cc2nc(CC(N)C(=O)O)c(CP(=O)(O)O)nc2cc1OC (stereo not drawn) [Example 11, α-Amino-6,7-dimethoxy-3-(phosphonomethyl)-2-quinoxalinepropanoic Acid] | – | 832 |
